Results on 76 sequences are retold here after the OligoGym collection.

The target in this data set is DGAT2. Particulars: ASO.

“And” between values parts separate entries of the source, which are not always exact repeats. Equal values may be shown once. After the bases stand the sugars from the 5' end (letter, count) and the backbone: PS all phosphorothioate, else s phosphorothioate and o phosphodiester by linkage. Methylation of C is not given here. e = 2'-O-(2-methoxyethyl) (MOE); d = 2'-deoxy (DNA)

“CAGGACCCACTGGAGCACTG (sugars e5 d10 e5, PS)” gave a target mRNA inhibition (HepG2, 0.12 µM) of 80% and a target mRNA inhibition (HepG2, 20 µM) of 83%.
With “CAGGTAGAGTTCTATTGCTT (sugars e5 d10 e5, PS)”, the target mRNA inhibition (HepG2, 2.5 µM) was 68% and 55%; the target mRNA inhibition (HepG2, 10 µM) is 89% and 82%.
Regarding “CAGGTTCATCTGCCTTGACG (sugars e5 d10 e5, PS)”, the target mRNA inhibition stood at 69% (HepG2, 2.5 µM) and 72% (HepG2, 10 µM).
Take “CAGGTTGTGTGTCTTCACCA (sugars e5 d10 e5, PS)”: the target mRNA inhibition is, setting by setting: (HepG2, 0.12 µM) 68% and 76%; (HepG2, 10 µM) 74%; (HepG2, 20 µM) 87%.
The sequence “CAGTGCCTACAGCAGAGGGA (sugars e5 d10 e5, PS)” yielded a target mRNA inhibition (HepG2, 0.12 µM) of 0%.
Consider “CAGTGCTTTCTAAGTACCCT (sugars e5 d10 e5, PS)”, for which the target mRNA inhibition is, setting by setting: (HepG2, 2.5 µM) 68% and 69%; (HepG2, 10 µM) 91% and 86%.
Under “HepG2, 0.12 µM”, “CAGTGGGCCCCAGGTGGCTC (sugars e5 d10 e5, PS)” displayed a target mRNA inhibition of 46%.
As for “CATACTGGCATCTGGCAGGG (sugars e5 d10 e5, PS)”, the target mRNA inhibition was 65% (HepG2, 2.5 µM) and 83% (HepG2, 10 µM).
As for “CATTCTTTGAAAGCAAATAG (sugars e5 d10 e5, PS)”, the target mRNA inhibition (HepG2, 0.12 µM) was 15%.
The same measure, in the same setting: to “CATTGCCACTCCCATTCTTT (sugars e3 d14 e3, PS)” belongs 46%.
“CCAACTCTCAGCTACTCCCC (sugars e5 d10 e5, PS)” returned a target mRNA inhibition (HepG2, 2.5 µM) of 95% and a target mRNA inhibition (HepG2, 10 µM) of 79%.
With “CCACAGGGCCCTTTCCAGAA (sugars e5 d10 e5, PS)”, the target mRNA inhibition was 58% and 53% (HepG2, 2.5 µM); 87% and 85% (HepG2, 10 µM).
Regarding “CCACTGGAGCACTGAGATGA (sugars e3 d14 e3, PS)”, the target mRNA inhibition (HepG2, 0.12 µM) amounted to 62%.
The same measure, in the same setting: to “CCAGCTGGATGGGAAAGTAG (sugars e5 d10 e5, PS)” belongs 24%; to “CCAGGGCCTCCATGTACATG (sugars e2 d13 e5, PS)”, 69%.
Consider “CCAGTTTCGGACCCACTGTG (sugars e5 d10 e5, PS)”, for which the target mRNA inhibition is, setting by setting: (HepG2, 0.12 µM) 83%; (HepG2, 2.5 µM) 28%; (HepG2, 10 µM) 31%; (HepG2, 20 µM) 65%.
“CCATGTACATGGTGTGGTAC (sugars e5 d10 e5, PS)” came in with a target mRNA inhibition (HepG2, 0.12 µM) of 52%.
Still for that read-out and setting: to “CCCACTGGAGCACTGAGATG (sugars e3 d14 e3, PS)” belongs 75%.
Consider “CCCAGATTTAGCCACCACCT (sugars e5 d10 e5, PS)”, for which the target mRNA inhibition was found to be 56% (HepG2, 2.5 µM) and 72% (HepG2, 10 µM).
Take “CCCAGTACTTTCTTCTCATG (sugars e5 d10 e5, PS)”: the target mRNA inhibition runs as follows: (HepG2, 2.5 µM) 72%; (HepG2, 10 µM) 96%.
“CCCAGTTTCGGACCCACTGT (sugars e2 d13 e5, PS)” registered a target mRNA inhibition (HepG2, 0.12 µM) of 70%.
The same measure, in the same setting: as for “CCCAGTTTCGGACCCACTGT (sugars e3 d14 e3, PS)”, the figure is 76%.
With “CCCAGTTTCGGACCCACTGT (sugars e5 d10 e5, PS)”, the target mRNA inhibition (HepG2, 0.12 µM) is 85%; the target mRNA inhibition (HepG2, 2.5 µM) is 24% and 25%; the target mRNA inhibition (HepG2, 10 µM) amounted to 33%; the target mRNA inhibition (HepG2, 20 µM) is 57%.
Take “CCCATCTCCCAGACCCCTCG (sugars e5 d10 e5, PS)”: the target mRNA inhibition (HepG2, 0.12 µM) stood at 12%.
As to “CCCTCTTAGAAGTAATGCTT (sugars e5 d10 e5, PS)”, where the note is “HepG2, 10 µM”, the target mRNA inhibition was 85% and 89%.
The sequence “CCGGAGTAGGCGGCTATGAG (sugars e5 d10 e5, PS)” returned a target mRNA inhibition (HepG2, 0.12 µM) of 37%.
In turn, “CCTCCTTAGCTTTAATCCAG (sugars e5 d10 e5, PS)” registered a target mRNA inhibition (HepG2, 2.5 µM) of 43% and a target mRNA inhibition (HepG2, 10 µM) of 82%.
With “CCTCTGCTTCTTGGGCATCT (sugars e5 d10 e5, PS)”, the target mRNA inhibition (HepG2, 2.5 µM) was 92% and 91%; the target mRNA inhibition (HepG2, 10 µM) was 91% and 89%.
In the case of “CCTGGACAAGTCCTGCCCAT (sugars e2 d13 e5, PS)”, for the setting “HepG2, 0.12 µM”, the target mRNA inhibition is 59%.
On the same count and under the same terms, to “CCTGGTGGTCAGCAGGTTGT (sugars e5 d10 e5, PS)” belongs 64%; to “CGAAGATCACCTGCTTGTAC (sugars e5 d10 e5, PS)”, 63%; to “CGCGCAGGACCCCGGAGTAG (sugars e2 d13 e5, PS)”, 67%.
For the sequence “CGGACTGAATGTCACCT (sugars e3 d10 e4, PS)”, the target mRNA inhibition is, setting by setting: (HepG2, 2.5 µM) 60% and 68%; (HepG2, 10 µM) 87% and 83%.
Consider “CTCAGAGACTCAGCCGCACC (sugars e2 d13 e5, PS)”, for which the target mRNA inhibition (HepG2, 0.12 µM) came to 43%.
“CTCCTGTTTGATGGGTAAAA (sugars e5 d10 e5, PS)”: the target mRNA inhibition is 90% (HepG2, 2.5 µM) and 80% (HepG2, 10 µM).
In the same order, the values of “CTGCATAGCTGAGCAAATCC (sugars e5 d10 e5, PS)” are 52% and 70%.
“CTGCCACCTTCCAGGGAATA (sugars e5 d10 e5, PS)” had a target mRNA inhibition (HepG2, 0.12 µM) of 27%.
For “CTGCCATTTAATGAGCTTCA (sugars e5 d10 e5, PS)”, the target mRNA inhibition (HepG2, 10 µM) is 94% and 95% and 89%.
Take “CTGCTTGTACACTTCATTCT (sugars e5 d10 e5, PS)”: the target mRNA inhibition (HepG2, 0.12 µM) amounted to 58%.
Consider “CTGGACAAGTCCTGCCCATC (sugars e2 d13 e5, PS)”, for which, where the note is “HepG2, 0.12 µM”, the target mRNA inhibition was 58%.
Same read-out and setting: as for “CTGGACAAGTCCTGCCCATC (sugars e5 d10 e5, PS)”, the figure is 77%; as for “CTGGATGGGAAAGTAGTCTC (sugars e5 d10 e5, PS)”, 38%.
Consider “CTGTGAGGCCAAGGACAGAG (sugars e5 d10 e5, PS)”, for which the target mRNA inhibition is, setting by setting: (HepG2, 2.5 µM) 50%; (HepG2, 10 µM) 81%.
The like results for “CTGTGCTCTGTGGGCTCCTC (sugars e5 d10 e5, PS)” were, in that order, 57% and 89%.
Take “CTTCTGGACCCATCGGCCCC (sugars e5 d10 e5, PS)”: the target mRNA inhibition (HepG2, 0.12 µM) stood at 30%.
For the setting “HepG2, 0.12 µM”, “CTTCTTCTGGACCCATCGGC (sugars e5 d10 e5, PS)” yielded a target mRNA inhibition of 27%.
The sequence “CTTGGGTGTGTTCCAGTCAA (sugars e5 d10 e5, PS)” showed a target mRNA inhibition (HepG2, 0.12 µM) of 5%.
With “CTTGTGCTTGTCGAAGAGCT (sugars e5 d10 e5, PS)”, the target mRNA inhibition is, setting by setting: (HepG2, 2.5 µM) 33%; (HepG2, 10 µM) 66%.
“CTTTGAAATCCAATGCACCT (sugars e5 d10 e5, PS)”: the target mRNA inhibition is, setting by setting: (HepG2, 2.5 µM) 65%; (HepG2, 10 µM) 92%.
In the same order, the values of “GAAATCCAATGCACCTTGTA (sugars e5 d10 e5, PS)” are 63% and 94%.
Sequence “GAAGTCAGGCCAAGTGCCAA (sugars e5 d10 e5, PS)” registered a target mRNA inhibition (HepG2, 0.12 µM) of 26%.
With “GAATGGTGTGTTGGCTCCCT (sugars e5 d10 e5, PS)”, the target mRNA inhibition is 54% (HepG2, 2.5 µM) and 75% (HepG2, 10 µM).
For the sequence “GACAAAGTCTATCAGGATGC (sugars e5 d10 e5, PS)”, the target mRNA inhibition (HepG2, 2.5 µM) is 88% and 67%; the target mRNA inhibition (HepG2, 10 µM) is 92% and 91%.
Turning to “GACACACAATATCCATGGAC (sugars e5 d10 e5, PS)”, the target mRNA inhibition turned out to be 72% (HepG2, 2.5 µM) and 93% (HepG2, 10 µM).
As for “GACTCAGTGTCCTCCTTAGC (sugars e5 d10 e5, PS)”, the target mRNA inhibition (HepG2, 10 µM) is 73%.
Sequence “GACTTCCCTTCACAGAATCC (sugars e5 d10 e5, PS)” had a target mRNA inhibition (HepG2, 0.12 µM) of 5%.
“GAGATGGTGATAAGGCAGCA (sugars e5 d10 e5, PS)”: the target mRNA inhibition reads like this: (HepG2, 2.5 µM) 46% and 50%; (HepG2, 10 µM) 80%.
For “GAGCACTTGATCTGGGACCC (sugars e5 d10 e5, PS)”, the target mRNA inhibition is 80% and 71% (HepG2, 2.5 µM); 92% and 91% (HepG2, 10 µM).
Turning to “GAGCTCAGAGACTCAGCCGC (sugars e3 d14 e3, PS)”, the target mRNA inhibition runs as follows: (HepG2, 0.12 µM) 89%; (HepG2, 10 µM) 72% and 73%.
Where the note is “HepG2, 0.12 µM”, “GAGTAGGCGGCTATGAGGGT (sugars e5 d10 e5, PS)” yielded a target mRNA inhibition of 11%.
The sequence “GAGTATAGAAATTTCACTGA (sugars e5 d10 e5, PS)” showed a target mRNA inhibition (HepG2, 0.12 µM) of 44%.
Same read-out and setting: to “GAGTCTGTGCTGCATCCATG (sugars e5 d10 e5, PS)” belongs 48%.
Same read-out and setting: as for “GATAGCATTGCCACTCCCAT (sugars e2 d13 e5, PS)”, the figure is 62%.
With “GATCACCTGCTTGTACACTT (sugars e5 d10 e5, PS)”, the target mRNA inhibition was found to be 36% (HepG2, 2.5 µM) and 64% (HepG2, 10 µM).
In turn, “GATTATTCTAAAACTCAAAT (sugars e5 d10 e5, PS)” registered a target mRNA inhibition (HepG2, 0.12 µM) of 0%.
Still for that read-out and setting: as for “GATTTGTACTTGAATCCAGG (sugars e5 d10 e5, PS)”, the figure is 34%; as for “GCAAATAGTCTATGGTGTCC (sugars e5 d10 e5, PS)”, 60%.
With “GCACAGCGATGAGCCAGCAA (sugars e5 d10 e5, PS)”, the target mRNA inhibition by setting is: (HepG2, 2.5 µM) 50% and 45% and 69%; (HepG2, 10 µM) 92% and 89% and 94%.
Take “GCACCAAGGAATGGTGTGTT (sugars e5 d10 e5, PS)”: the target mRNA inhibition by setting is: (HepG2, 2.5 µM) 16%; (HepG2, 10 µM) 38%.
Turning to “GCACCATAATCTGCACAGGT (sugars e5 d10 e5, PS)”, the target mRNA inhibition (HepG2, 2.5 µM) is 88% and 86%; the target mRNA inhibition (HepG2, 10 µM) is 93% and 89% and 92%.
Regarding “GCACCTTGTATTAAATACTC (sugars e5 d10 e5, PS)”, the target mRNA inhibition came to 75% (HepG2, 2.5 µM) and 91% (HepG2, 10 µM).
Turning to “GCAGCAGGTACTCATGTTTG (sugars e5 d10 e5, PS)”, the target mRNA inhibition (HepG2, 2.5 µM) was found to be 54% and the target mRNA inhibition (HepG2, 10 µM) is 75%.
As for “GCAGCCTGGACAAGTCCTGC (sugars e2 d13 e5, PS)”, the target mRNA inhibition (HepG2, 0.12 µM) turned out to be 77%.
On the same count and under the same terms, to “GCAGGACCCCGGAGTAGGCG (sugars e3 d14 e3, PS)” belongs 70%.
Consider “GCAGGCCTCGGGAAGCACCT (sugars e5 d10 e5, PS)”, for which the target mRNA inhibition (HepG2, 2.5 µM) is 69% and 67%; the target mRNA inhibition (HepG2, 10 µM) was 93% and 87%.
For the sequence “GCAGGTTCATCTGCCTTGAC (sugars e5 d10 e5, PS)”, the target mRNA inhibition by setting is: (HepG2, 2.5 µM) 80% and 65%; (HepG2, 10 µM) 81% and 85%.
